What follows are compounds tested against GCN2 (Homo sapiens (Human), UniProt Q9P2K8) (assay: GCN2 Biochemical Assay (TR-FRET, GFP-eIF2S1 substrate phosphorylation)). Conditions: read-out: IC50 (GCN2 Inhibitory Activity).
In short: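 TR-FRET readout (Ex 340, Em 490/520 nm) after 2–3 h with Tb-labelled phospho-eIF2S1 antibody in stop mix, following a 70 min room-temperature kinase step. Reaction: in-house GCN2, GFP-eIF2S1, ATP, tRNA in Tris pH 7.5 (2× stocks 1.6 nM, 50 nM, 0.2 mM); compounds tested at 10 concentrations, with a phospho-substrate artifact counter-plate.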

Chain of GCN2 (Q9P2K8 whole entry): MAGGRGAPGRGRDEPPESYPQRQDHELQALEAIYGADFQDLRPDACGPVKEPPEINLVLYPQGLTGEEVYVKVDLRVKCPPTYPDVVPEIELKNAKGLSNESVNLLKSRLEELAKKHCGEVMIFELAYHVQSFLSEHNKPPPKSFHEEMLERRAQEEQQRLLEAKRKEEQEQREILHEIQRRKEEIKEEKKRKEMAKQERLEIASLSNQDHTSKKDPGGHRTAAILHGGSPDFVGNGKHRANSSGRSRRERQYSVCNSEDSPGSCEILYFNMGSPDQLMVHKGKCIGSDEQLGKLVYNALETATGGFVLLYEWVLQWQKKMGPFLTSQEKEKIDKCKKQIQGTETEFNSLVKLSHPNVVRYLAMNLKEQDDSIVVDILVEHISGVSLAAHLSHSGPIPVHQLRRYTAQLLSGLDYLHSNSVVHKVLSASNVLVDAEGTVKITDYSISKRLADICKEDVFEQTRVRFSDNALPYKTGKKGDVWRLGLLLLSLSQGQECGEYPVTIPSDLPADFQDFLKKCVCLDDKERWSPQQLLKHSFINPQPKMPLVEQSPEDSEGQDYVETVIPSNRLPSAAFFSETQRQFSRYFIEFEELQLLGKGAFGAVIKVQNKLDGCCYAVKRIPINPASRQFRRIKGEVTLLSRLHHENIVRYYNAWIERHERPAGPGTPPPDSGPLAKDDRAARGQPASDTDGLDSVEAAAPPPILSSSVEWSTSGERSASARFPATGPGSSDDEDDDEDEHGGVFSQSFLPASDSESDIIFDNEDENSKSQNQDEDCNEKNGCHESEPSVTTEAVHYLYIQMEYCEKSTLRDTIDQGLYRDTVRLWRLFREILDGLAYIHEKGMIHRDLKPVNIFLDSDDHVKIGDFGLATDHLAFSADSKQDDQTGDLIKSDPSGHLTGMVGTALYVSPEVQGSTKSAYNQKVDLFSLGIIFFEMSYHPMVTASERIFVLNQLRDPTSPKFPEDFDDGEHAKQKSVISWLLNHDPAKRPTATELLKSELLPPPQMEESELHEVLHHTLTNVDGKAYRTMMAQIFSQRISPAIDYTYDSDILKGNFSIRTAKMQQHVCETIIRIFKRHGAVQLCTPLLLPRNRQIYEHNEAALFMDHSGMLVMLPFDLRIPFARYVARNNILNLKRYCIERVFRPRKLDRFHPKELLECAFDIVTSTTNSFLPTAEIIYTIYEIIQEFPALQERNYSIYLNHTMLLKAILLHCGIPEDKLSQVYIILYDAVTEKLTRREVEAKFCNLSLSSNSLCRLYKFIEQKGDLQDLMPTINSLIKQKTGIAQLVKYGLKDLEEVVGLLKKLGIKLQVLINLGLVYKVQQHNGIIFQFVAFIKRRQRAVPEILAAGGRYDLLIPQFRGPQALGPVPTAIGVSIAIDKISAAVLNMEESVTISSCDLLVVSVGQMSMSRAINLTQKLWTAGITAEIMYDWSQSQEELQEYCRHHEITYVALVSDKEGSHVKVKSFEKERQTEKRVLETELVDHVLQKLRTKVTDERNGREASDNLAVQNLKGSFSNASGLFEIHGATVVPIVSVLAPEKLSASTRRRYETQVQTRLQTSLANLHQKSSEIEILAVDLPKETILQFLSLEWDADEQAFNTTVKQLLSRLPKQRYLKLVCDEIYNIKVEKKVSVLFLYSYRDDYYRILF

IC50	Structure (SMILES)
< 10 nM	CC(=O)/C=C/c1cccc2c1CN(c1cccc3c(-c4nc(Nc5cc(C)n(C)n5)ncc4C)c[nH]c13)C2=O [Example 362, (E)-2-(3-(2-((1,5-dimethyl-1H-pyrazol-3-yl)amino)-5-methylpyrimidin-4-yl)-1H-indol-7-yl)-4-(3-oxobut-1-en-1-yl)isoindolin-1-one]
10 to 100 nM	CCCCN(CCCC)C(=O)/C=C/c1cccc2c1CN(c1cccc3c(-c4nc(Nc5cc(C)n(C)n5)ncc4C)c[nH]c13)C2=O [Example 369, (E)-N,N-dibutyl-3-(2-(3-(2-((1,5-dimethyl-1H-pyrazol-3-yl)amino)-5-methylpyrimidin-4-yl)-1H-indol-7-yl)-1-oxoisoindolin-4-yl)acrylamide]
< 10 nM	CCCNC(=O)/C=C/c1cccc2c1CN(c1cccc3c(-c4nc(Nc5cc(C)n(C)n5)ncc4C)c[nH]c13)C2=O [Example 373, (E)-3-(2-(3-(2-((1,5-dimethyl-1H-pyrazol-3-yl)amino)-5-methylpyrimidin-4-yl)-1H-indol-7-yl)-1-oxoisoindolin-4-yl)-N-propylacrylamide]
< 10 nM	COCCNC(=O)/C=C/c1cccc2c1CN(c1cccc3c(-c4nc(Nc5cc(C)n(C)n5)ncc4C)c[nH]c13)C2=O [Example 374, (E)-3-(2-(3-(2-((1,5-dimethyl-1H-pyrazol-3-yl)amino)-5-methylpyrimidin-4-yl)-1H-indol-7-yl)-1-oxoisoindolin-4-yl)-N-(2-methoxyethyl)acrylamide]
< 10 nM	CCNC(=O)/C(C)=C/c1cccc2c1CN(c1cccc3c(-c4nc(Nc5cc(C)n(C)n5)ncc4C)c[nH]c13)C2=O [Example 376, (E)-3-(2-(3-(2-((1,5-dimethyl-1H-pyrazol-3-yl)amino)-5-methylpyrimidin-4-yl)-1H-indol-7-yl)-1-oxoisoindolin-4-yl)-N-ethyl-2-methylacrylamide]
< 10 nM	Cc1cnc(Nc2cc(C)n(C)n2)nc1-c1c[nH]c2c(N3Cc4ccc(-c5ccncc5)cc4C3=O)cccc12 [Example 380, 2-(3-(2-((1,5-dimethyl-1H-pyrazol-3-yl)amino)-5-methylpyrimidin-4-yl)-1H-indol-7-yl)-6-(pyridin-4-yl)isoindolin-1-one]
< 10 nM	Cc1cnc(Nc2cc(C)n(C)n2)nc1-c1c[nH]c2c(N3Cc4ccc(C5=CCNCC5)cc4C3=O)cccc12 [Example 381, 2-(3-(2-((1,5-dimethyl-1H-pyrazol-3-yl)amino)-5-methylpyrimidin-4-yl)-1H-indol-7-yl)-6-(1,2,3,6-tetrahydropyridin-4-yl)isoindolin-1-one]
10 to 100 nM	Cc1cnc(Nc2cc(C)n(C)n2)nc1-c1c[nH]c2c(N3Cc4cccc(-c5ccccc5)c4C3=O)cccc12 [Example 382, 2-(3-(2-((1,5-dimethyl-1H-pyrazol-3-yl)amino)-5-methylpyrimidin-4-yl)-1H-indol-7-yl)-7-phenylisoindolin-1-one]
< 10 nM	Cc1cnc(Nc2cc(C)n(C)n2)nc1-c1c[nH]c2c(N3Cc4cccc(-c5ccncc5)c4C3=O)cccc12 [Example 383, 2-(3-(2-((1,5-dimethyl-1H-pyrazol-3-yl)amino)-5-methylpyrimidin-4-yl)-1H-indol-7-yl)-7-(pyridin-4-yl)isoindolin-1-one]
10 to 100 nM	Cc1cnc(Nc2cc(C)n(C)n2)nc1-c1c[nH]c2c(N3Cc4cccc(C5=CCOCC5)c4C3=O)cccc12 [Example 385, 7-(3,6-dihydro-2H-pyran-4-yl)-2-(3-(2-((1,5-dimethyl-1H-pyrazol-3-yl)amino)-5-methylpyrimidin-4-yl)-1H-indol-7-yl)isoindolin-1-one]
10 to 100 nM	Cc1cnc(Nc2cc(C)n(C)n2)nc1-c1c[nH]c2c(N3Cc4cccc(-c5cn[nH]c5)c4C3=O)cccc12 [Example 386, 2-(3-(2-((1,5-dimethyl-1H-pyrazol-3-yl)amino)-5-methylpyrimidin-4-yl)-1H-indol-7-yl)-7-(1H-pyrazol-4-yl)isoindolin-1-one]
< 10 nM	Cc1cnc(Nc2cc(C)n(C)n2)nc1-c1c[nH]c2c(N3Cc4c(cccc4-c4cccnc4)C3=O)cccc12 [Example 388, 2-(3-(2-((1,5-dimethyl-1H-pyrazol-3-yl)amino)-5-methylpyrimidin-4-yl)-1H-indol-7-yl)-4-(pyridin-3-yl)isoindolin-1-one]
< 10 nM	Cc1cnc(Nc2cc(C)n(C)n2)nc1-c1c[nH]c2c(N3Cc4c(cccc4-c4cnn(C)c4)C3=O)cccc12 [Example 389, 2-(3-(2-((1,5-dimethyl-1H-pyrazol-3-yl)amino)-5-methylpyrimidin-4-yl)-1H-indol-7-yl)-4-(i-methyl-1H-pyrazol-4-yl)isoindolin-1-one]
< 10 nM	Cc1cnc(Nc2cc(C)n(C)n2)nc1-c1c[nH]c2c(N3Cc4c(cccc4-c4cn[nH]c4)C3=O)cccc12 [Example 390, 2-(3-(2-((1,5-dimethyl-1H-pyrazol-3-yl)amino)-5-methylpyrimidin-4-yl)-1H-indol-7-yl)-4-(1H-pyrazol-4-yl)isoindolin-1-one]

Further lines, the compound ahead of its results:

Structure (SMILES)	IC50
CNC(=O)/C=C/c1cccc2c1CN(c1cccc3c(-c4nc(Nc5cc(C)n(C)n5)ncc4C)c[nH]c13)C2=O [Example 363, (E)-3-(2-(3-(2-((1,5-dimethyl-1H-pyrazol-3-yl)amino)-5-methylpyrimidin-4-yl)-1H-indol-7-yl)-1-oxoisoindolin-4-yl)-N-methylacrylamide]	< 10 nM
CCNC(=O)/C=C/c1cccc2c1CN(c1cccc3c(-c4nc(Nc5cc(C)n(C)n5)ncc4C)c[nH]c13)C2=O [Example 364, (E)-3-(2-(3-(2-((1,5-dimethyl-1H-pyrazol-3-yl)amino)-5-methylpyrimidin-4-yl)-1H-indol-7-yl)-1-oxoisoindolin-4-yl)-N-ethylacrylamide]	< 10 nM
Cc1cnc(Nc2cc(C)n(C)n2)nc1-c1c[nH]c2c(N3Cc4c(/C=C/C(=O)NC5CC5)cccc4C3=O)cccc12 [Example 365, (E)-N-cyclopropyl-3-(2-(3-(2-((1,5-dimethyl-1H-pyrazol-3-yl)amino)-5-methylpyrimidin-4-yl)-1H-indol-7-yl)-1-oxoisoindolin-4-yl)acrylamide]	< 10 nM
Cc1cnc(Nc2cc(C)n(C)n2)nc1-c1c[nH]c2c(N3Cc4c(/C=C/C(=O)NN)cccc4C3=O)cccc12 [Example 366, (E)-3-(2-(3-(2-((1,5-dimethyl-1H-pyrazol-3-yl)amino)-5-methylpyrimidin-4-yl)-1H-indol-7-yl)-1-oxoisoindolin-4-yl)acrylohydrazide]	< 10 nM
Cc1cnc(Nc2cc(C)n(C)n2)nc1-c1c[nH]c2c(N3Cc4c(/C=C/C(=O)O)cccc4C3=O)cccc12 [Example 367, (E)-3-(2-(3-(2-((1,5-dimethyl-1H-pyrazol-3-yl)amino)-5-methylpyrimidin-4-yl)-1H-indol-7-yl)-1-oxoisoindolin-4-yl)acrylic acid]	< 10 nM
CCN(CC)C(=O)/C=C/c1cccc2c1CN(c1cccc3c(-c4nc(Nc5cc(C)n(C)n5)ncc4C)c[nH]c13)C2=O [Example 368, (E)-3-(2-(3-(2-((1,5-dimethyl-1H-pyrazol-3-yl)amino)-5-methylpyrimidin-4-yl)-1H-indol-7-yl)-1-oxoisoindolin-4-yl)-N,N-diethylacrylamide]	< 10 nM
Cc1cnc(Nc2cc(C)n(C)n2)nc1-c1c[nH]c2c(N3Cc4c(/C=C/C(=O)NC(C)(C)C)cccc4C3=O)cccc12 [Example 371, (E)-N-(tert-butyl)-3-(2-(3-(2-((1,5-dimethyl-1H-pyrazol-3-yl)amino)-5-methylpyrimidin-4-yl)-1H-indol-7-yl)-1-oxoisoindolin-4-yl)acrylamide]	< 10 nM
Cc1cnc(Nc2cc(C)n(C)n2)nc1-c1c[nH]c2c(N3Cc4c(/C=C/C(=O)NCCO)cccc4C3=O)cccc12 [Example 372, (E)-3-(2-(3-(2-((1,5-dimethyl-1H-pyrazol-3-yl)amino)-5-methylpyrimidin-4-yl)-1H-indol-7-yl)-1-oxoisoindolin-4-yl)-N-(2-hydroxyethyl)acrylamide]	< 10 nM
Cc1cnc(Nc2cc(C)n(C)n2)nc1-c1c[nH]c2c(N3Cc4c(/C=C/CO)cccc4C3=O)cccc12 [Example 375, (E)-2-(3-(2-((1,5-dimethyl-1H-pyrazol-3-yl)amino)-5-methylpyrimidin-4-yl)-1H-indol-7-yl)-4-(3-hydroxyprop-1-en-1-yl)isoindolin-1-one]	< 10 nM
Cc1cnc(Nc2cc(C)n(C)n2)nc1-c1c[nH]c2c(N3Cc4c(cccc4-c4ccccc4)C3=O)cccc12 [Example 377, 2-(3-(2-((1,5-dimethyl-1H-pyrazol-3-yl)amino)-5-methylpyrimidin-4-yl)-1H-indol-7-yl)-4-phenylisoindolin-1-one]	< 10 nM
Cc1cnc(Nc2cc(C)n(C)n2)nc1-c1c[nH]c2c(N3Cc4cc(-c5ccccc5)ccc4C3=O)cccc12 [Example 378, 2-(3-(2-((1,5-dimethyl-1H-pyrazol-3-yl)amino)-5-methylpyrimidin-4-yl)-1H-indol-7-yl)-5-phenylisoindolin-1-one]	> 1000 nM
Cc1cnc(Nc2cc(C)n(C)n2)nc1-c1c[nH]c2c(N3Cc4ccc(-c5ccccc5)cc4C3=O)cccc12 [Example 379, 2-(3-(2-((1,5-dimethyl-1H-pyrazol-3-yl)amino)-5-methylpyrimidin-4-yl)-1H-indol-7-yl)-6-phenylisoindolin-1-one]	100 to 1000 nM
Cc1cnc(Nc2cc(C)n(C)n2)nc1-c1c[nH]c2c(N3Cc4cccc(C5=CCCCC5)c4C3=O)cccc12 [Example 384, 7-(cyclohex-1-en-1-yl)-2-(3-(2-((1,5-dimethyl-1H-pyrazol-3-yl)amino)-5-methylpyrimidin-4-yl)-1H-indol-7-yl)isoindolin-1-one]	100 to 1000 nM
Cc1cnc(Nc2cc(C)n(C)n2)nc1-c1c[nH]c2c(N3Cc4c(cccc4-c4ccncc4)C3=O)cccc12 [Example 387, 2-(3-(2-((1,5-dimethyl-1H-pyrazol-3-yl)amino)-5-methylpyrimidin-4-yl)-1H-indol-7-yl)-4-(pyridin-4-yl)isoindolin-1-one]	< 10 nM
